Reference: patent US20190315823A1, “SMALL CATIONIC ANTI-BIOFILM AND IDR PEPTIDES” (priority 2013, published 2019)
Ends that are not written are not given here.

Experiments:
[1] = system: methicillin resistant Staphylococcus aureus (MRSA) biofilm; conditions: approximate peptide concentration […] (around 3 μg/ml); compared to untreated samples
In short: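 Peptide was present from inoculation onward, with bacteria seeded at 1/100 from overnight cultures into BM2 biofilm medium or Luria Broth. Crystal violet staining of surface-attached cells (A595) quantified biofilm reduction at 22–46 h. K. pneumoniae was additionally screened in a real-time Bioflux flow device for some peptides.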

[2] = system: human peripheral blood mononuclear cells (MCP-1); test: SPOT-synthesized derivative screen: production of chemokine MCP-1; assay type: cell-based; conditions: Table 12, No LPS, human PBMC, peptide at ~18-24 μM; for MCP1: background subtracted 139 (HH2 derivatives), 170 (1018 derivatives), 242 (1002 and hybrid peptides) pg/ml
In short: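 MCP-1 was quantified by capture ELISA in cleared culture supernatants of treated human peripheral blood mononuclear cells. Cells came from heparinized volunteer blood via Ficoll gradient and were seeded at 0.75 to 1×10^6 cells/ml (37 °C, 5% CO2).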

[3] = system: LPS-stimulated human peripheral blood mononuclear cells (IL1-β); assay type: cell-based; conditions: Table 12, cells stimulated with 10 ng/ml LPS; for IL1β Production: LPS alone 1313 (HH2 derivatives), 1927 (1018 derivatives), 2455 (1002 and hybrid peptides) pg/ml

Row | Substance | % Biofilm inhibition [1] [%] | Fold increase in MCP1 cf. untreated cells [2] | MCP1 [2] [pg/mL] | Fold change in IL1β relative to no peptide LPS stimulated cells [3] | IL1β Production [3] [pg/mL]
1 | 1018-A5: single substituted 1018 peptide (VRLIAAVRIWRR-NH2) [Peptide 1018-A5] | 54 | 1.3 | 57 | 0.57 | 752
2 | HH2-K6: single substituted HH2 peptide (VQLRIKVAVIRA-NH2) | 64 | 142 | 23989 | 0.80 | 1055
3 | 1002-K2: single substituted 1002 peptide (VKRWLIVWRIRK-NH2) [Peptide 1002-K2] | 69 | 2.6 | 392.4 | 0.05 | 127
4 | 1002-L8: single substituted 1002 peptide (VQRWLIVLRIRK-NH2) [Peptide 1002-L8] | 57 | 10.8 | 2367.1 | 0.06 | 135
5 | HH2-W11: single substituted HH2 peptide (VQLRIRVAVIWA-NH2) | 45 | 15 | 2309 | 1.04 | 1362
6 | 1018-R9: single substituted 1018 peptide (VRLIVAVRRWRR-NH2) [Peptide 1018-R9] | 59 | 0.9 | -10 | 0.24 | 310
7 | 1002-Q4: single substituted 1002 peptide (VQRQLIVWRIRK-NH2) [Peptide 1002-Q4] | 36 | 0.9 | -28.8 | 0.47 | 1165
8 | HH2-G5: single substituted HH2 peptide (VQLRGRVAVIRA-NH2) | 34 | 2.9 | 321 | 1.27 | 1672
9 | 1018-Q9: single substituted 1018 peptide (VRLIVAVRQWRR-NH2) [Peptide 1018-Q9] | 38 | 0.8 | -28 | 1.00 | 1313
10 | 1002-I4: single substituted 1002 peptide (VQRILIVWRIRK-NH2) [Peptide 1002-I4] | 62 | 2.1 | 273.6 | 0.09 | 213
11 | 1002-R8: single substituted 1002 peptide (VQRWLIVRRIRK-NH2) [Peptide 1002-R8] | 23 | 1.0 | -11.7 | 0.36 | 892
12 | HH2-I6: single substituted HH2 peptide (VQLRIIVAVIRA-NH2) | 45 | 8.1 | 1206 | 0.75 | 984
13 | 1018-W4: single substituted 1018 peptide (VRLWVAVRIWRR-NH2) [Peptide 1018-W4] | 67 | 1.2 | 29 | 0.14 | 182
14 | 1018-I12: single substituted 1018 peptide (VRLIVAVRIWRI-NH2) [Peptide 1018-I12] | 57 | 19 | 3003 | 0.24 | 314
15 | 1002-L10: single substituted 1002 peptide (VQRWLIVWRLRK-NH2) [Peptide 1002-L10] | 65 | 3.0 | 493.6 | 0.05 | 127
16 | 1002-R10: single substituted 1002 peptide (VQRWLIVWRRRK-NH2) [Peptide 1002-R10] | 15 | 2.5 | 375.3 | 0.05 | 127
17 | HH2-G12: single substituted HH2 peptide (VQLRIRVAVIRG-NH2) | 69 | 68 | 11442 | 1.09 | 1433
18 | 1018-V2: single substituted 1018 peptide (VVLIVAVRIWRR-NH2) [Peptide 1018-V2] | 67 | 1.3 | 56 | 0.12 | 159
19 | HH2-Q11: single substituted HH2 peptide (VQLRIRVAVIQA-NH2) | 63 | 17 | 2759 | 0.78 | 1020
20 | 1002-W5: single substituted 1002 peptide (VQRWWIVWRIRK-NH2) [Peptide 1002-W5] | 76 | 0.9 | -36.2 | 0.05 | 127
21 | 1002-I11: single substituted 1002 peptide (VQRWLIVWRIIK-NH2) [Peptide 1002-I11] | 67 | 2.0 | 238.8 | 0.05 | 127
22 | 1018-Q7: single substituted 1018 peptide (VRLIVAQRIWRR-NH2) [Peptide 1018-Q7] | 28 | 0.7 | -54 | 1.04 | 1368
23 | HH2-W5: single substituted HH2 peptide (VQLRWRVAVIRA-NH2) | 63 | 14 | 2198 | 0.77 | 1007
24 | 1002-Q3: single substituted 1002 peptide (VQQWLIVWRIRK-NH2) [Peptide 1002-Q3] | 70 | 2.4 | 343.8 | 0.05 | 127
25 | 1018-Q2: single substituted 1018 peptide (VQLIVAVRIWRR-NH2) [Peptide 1018-Q2] | 52 | 3.5 | 422 | 0.10 | 127
26 | 1018-R1: single substituted 1018 peptide (RRLIVAVRIWRR-NH2) [Peptide 1018-R1] | 46 | 5.9 | 832 | 0.13 | 176
27 | HH2-W1: single substituted HH2 peptide (WQLRIRVAVIRA-NH2) | 67 | 29 | 4725 | 0.66 | 866
28 | 1018-R7: single substituted 1018 peptide (VRLIVARRIWRR-NH2) [Peptide 1018-R7] | 0 | 1.9 | 161 | 1.68 | 2201
29 | HH2-W7: single substituted HH2 peptide (VQLRIRWAVIRA-NH2) | 70 | 9.2 | 1395 | 0.88 | 1154
30 | 1018-V10: single substituted 1018 peptide (VRLIVAVRIVRR-NH2) [Peptide 1018-V10] | 50 | 1.2 | 29 | 0.28 | 370
